The record followed here is patent US11214803B2, “Modulators of YAP1 expression” (Ionis Pharmaceuticals, Inc., priority 2019, dated 2022).

Strand notation (5' to 3'): a small letter for the sugar, then the base; units joined by * are phosphorothioate-linked, units joined directly phosphodiester-linked; [ ] holds rarer units or linkages, { } end groups; capitals alone tell only the bases. k = constrained ethyl (cEt); [5mC] = 5-methylcytosine; d = 2'-deoxy (DNA)

This data set relates to Yap1 mRNA. As to the kind of experiment: Antisense inhibition of human Yap1 in A-431 cells by cEt gapmers, single dose (Example 3, RTS36584). It is filed as cell-based. A digest of the protocol: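 Human epidermoid A-431 cells take up gapmer (2,000 nM, free uptake, ~48 h); Yap1 transcript is then assayed by qRT-PCR with RiboGreen normalization and reported relative to untreated cells. Gapmers carry cEt-modified wings, phosphorothioate linkages and 5-methylcytosine throughout.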

The mark [1] stands for this setting: Table 27, Yap1 mRNA by 3-10-3 cEt gapmers targeting SEQ ID NO.: 1, and 2, percent of untreated control.
Where [2] appears, read: Table 11, A-431 cells, 5,000 cells per well, free uptake, 2,000 nM oligonucleotide, approx. 48 hours, primer probe set RTS36584, Yap1 mRNA normalized to RIBOGREEN, percent of untreated control.
Setting [3] is: Table 26, Yap1 mRNA by 3-10-3 cEt gapmers targeting SEQ ID NO.: 1, and 2, percent of untreated control.
Setting [4] is: Table 34, Yap1 mRNA as percent of untreated control, 3-10-3 cEt gapmers targeting SEQ ID NO: 1 and 2, single dose.
Setting [5] is: Table 9, A-431 cells, 5,000 cells per well, free uptake, 2,000 nM, approximately 48 hours, RTS36584, normalized to RIBOGREEN, Yap1 mRNA relative to untreated control cells.
Where [6] appears, read: Table 29, Yap1 mRNA as percent of untreated control, 3-10-3 cEt gapmers targeting SEQ ID NO.: 1, and 2.
Setting [7] is: Table 10, A-431 cells, 5,000 cells per well, free uptake, 2,000 nM oligonucleotide, approx. 48 hours, primer probe set RTS36584, Yap1 mRNA normalized to RIBOGREEN, percent of untreated control.
The mark [8] stands for this setting: Table 28, Yap1 mRNA as percent of untreated control, 3-10-3 cEt gapmers targeting SEQ ID NO.: 1, and 2.
The mark [9] stands for this setting: Table 12, A-431 cells, 5,000 cells per well, free uptake, 2,000 nM modified oligonucleotide, approx. 48 hours, RTS36584, normalized to RIBOGREEN, Yap1 mRNA relative to untreated control cells.
The mark [10] stands for this setting: Table 35, Yap1 mRNA as percent of untreated control, 3-10-3 cEt gapmers targeting SEQ ID NO: 1 and 2, single dose.
Setting [11] is: Table 13, A-431 cells, 5,000 cells per well, free uptake, 2,000 nM modified oligonucleotide, approx. 48 hours, RTS36584, normalized to RIBOGREEN, Yap1 mRNA relative to untreated control cells.
Where [12] appears, read: Table 8, A-431 cells, 5,000 cells per well, free uptake, 2,000 nM, approximately 48 hours, RTS36584, normalized to RIBOGREEN, Yap1 mRNA relative to untreated control cells.

For “1076013 (kG*kT*kT*dT*dA*dA*dT*dA*d[5mC]*d[5mC]*dT*d[5mC]*dT*kG*kA*k[5mC]; antisense) [compound 1076013]”, the “YAP1 (% UTC)” value under setting [1] is given as 76 % UTC.

Regarding “958663 (k[5mC]*kT*kA*dT*dT*dA*dG*dG*dG*dA*d[5mC]*dT*dG*kA*kA*k[5mC]; antisense) [Compound 958663]”, the “YAP1 (% UTC)” value under setting [2] is reported as 32 % UTC. Turning to “1074764 (kA*kT*kG*d[5mC]*dT*dA*d[5mC]*d[5mC]*d[5mC]*dA*dA*dT*dA*k[5mC]*kA*kA; antisense) [compound 1074764]”, under setting [3], the “YAP1 (% UTC)” value turned out to be 18 % UTC. In the case of “1075956 (kT*kA*kT*dA*dA*dA*dG*d[5mC]*dA*dA*dT*dG*d[5mC]*kG*kA*kT; antisense) [compound 1075956]”, the “YAP1 (% UTC)” value under setting [4] was 27 % UTC. On to “958796 (antisense kA*kT*kT*dA*dT*dA*dT*dG*dG*dT*dT*dG*d[5mC]*kT*kT*k[5mC]) [Compound 958796]”, for which the “YAP1 (% UTC)” value under setting [5] is listed as 3 % UTC. “1075503 (kG*k[5mC]*kT*dG*dA*dA*dA*dA*dA*dG*dG*dG*d[5mC]*kT*kT*kA; antisense) [compound 1075503]”: the “YAP1 (% UTC)” value under setting [6] is on record as 66 % UTC. For “958737 (antisense kG*kG*kA*dA*dT*dA*d[5mC]*dA*dA*dG*d[5mC]*d[5mC]*d[5mC]*kG*kA*kG) [Compound 958737]”, under setting [7], the “YAP1 (% UTC)” value is on record as 8 % UTC.

On to “1076431 (k[5mC]*kA*k[5mC]*d[5mC]*dA*dA*dT*dA*dG*dA*dA*d[5mC]*dA*kT*kA*kT; antisense) [compound 1076431]”, for which, under setting [6], the “YAP1 (% UTC)” value is reported as 31 % UTC. For “1075502 (k[5mC]*kT*kT*dA*dA*d[5mC]*dA*dT*dG*dA*dT*dT*d[5mC]*kT*kA*kG; antisense) [compound 1075502]”, the “YAP1 (% UTC)” value under setting [8] is recorded as 61 % UTC. As to “958704 (antisense k[5mC]*k[5mC]*k[5mC]*dT*dA*d[5mC]*dA*d[5mC]*dT*d[5mC]*dG*dA*dG*kG*kA*kT) [Compound 958704]”, the “YAP1 (% UTC)” value under setting [9] is on record as 122 % UTC. Consider “1075598 (antisense kA*kA*kT*dT*dA*dA*d[5mC]*dA*dT*dT*dT*dG*d[5mC]*k[5mC]*k[5mC]*kG) [compound 1075598]”, for which the “YAP1 (% UTC)” value under setting [8] came to 62 % UTC.

Turning to “958727 (antisense kA*kT*k[5mC]*dT*dG*dT*d[5mC]*dA*dG*dT*dT*dA*dT*k[5mC]*k[5mC]*kT) [Compound 958727]”, the “YAP1 (% UTC)” value under setting [7] is 2 % UTC. Regarding “1075989 (kG*k[5mC]*kT*dA*dA*dA*dA*dT*dT*dA*dA*dG*d[5mC]*kT*kT*k[5mC]; antisense) [compound 1075989]”, the “YAP1 (% UTC)” value under setting [10] was found to be 78 % UTC. For the substance “1076270 (kT*kA*kA*d[5mC]*dA*dA*dT*dA*dG*dT*dA*dG*dA*k[5mC]*kG*kA; antisense) [compound 1076270]”, the “YAP1 (% UTC)” value under setting [8] turned out to be 28 % UTC. With “958705 (antisense kG*kG*k[5mC]*d[5mC]*dA*dT*d[5mC]*dA*dA*dT*dA*dA*dA*kG*kA*k[5mC]) [Compound 958705]”, the “YAP1 (% UTC)” value under setting [11] is on record as 112 % UTC. The same measure, in the same setting: the value for “958725 (antisense kG*kT*k[5mC]*dA*dG*dT*dT*dA*dT*d[5mC]*d[5mC]*dT*dA*kT*k[5mC]*k[5mC]) [Compound 958725]” was 1 % UTC.

For the substance “1075020 (antisense kT*kT*kA*dA*dT*dT*dA*dG*d[5mC]*dA*dT*dT*dA*kG*kA*kG) [compound 1075020]”, under setting [3], the “YAP1 (% UTC)” value is listed as 30 % UTC. Regarding “1076301 (kG*kT*kA*dT*dA*dA*dG*dA*d[5mC]*d[5mC]*dT*dT*dG*kG*kG*kA; antisense) [compound 1076301]”, the “YAP1 (% UTC)” value under setting [1] amounted to 34 % UTC.

Take “958716 (antisense kA*kT*kG*dG*dA*d[5mC]*dT*dG*dT*dA*dT*dG*d[5mC]*kA*kG*k[5mC]) [Compound 958716]”: the “YAP1 (% UTC)” value under setting [5] was 84 % UTC. As for “958596 (kA*kG*k[5mC]*dA*dG*dT*dT*dA*dA*dG*d[5mC]*dA*d[5mC]*kT*kT*kT; antisense) [Compound 958596]”, the “YAP1 (% UTC)” value under setting [5] stood at 3 % UTC. On to “1074767 (kT*kT*kA*dT*d[5mC]*d[5mC]*d[5mC]*dA*dA*dT*dG*d[5mC]*dT*kA*k[5mC]*k[5mC]; antisense) [compound 1074767]”, for which the “YAP1 (% UTC)” value under setting [6] stood at 12 % UTC. For “1074765 (k[5mC]*kA*kA*dT*dG*d[5mC]*dT*dA*d[5mC]*d[5mC]*d[5mC]*dA*dA*kT*kA*k[5mC]; antisense) [compound 1074765]”, the “YAP1 (% UTC)” value under setting [1] stood at 34 % UTC. Regarding “958398 (antisense kG*k[5mC]*kA*dG*dG*d[5mC]*dT*dA*dT*dT*dA*dA*dG*k[5mC]*kT*kG) [Compound 958398]”, under setting [12], the “YAP1 (% UTC)” value is reported as 76 % UTC. Take “1075022 (antisense kA*kT*kT*dT*dA*d[5mC]*dA*dA*d[5mC]*d[5mC]*dT*dA*dG*kA*kT*kT) [compound 1075022]”: under setting [8], the “YAP1 (% UTC)” value was 91 % UTC.

As for “1075285 (antisense kT*kA*kT*dA*d[5mC]*dA*dT*dA*dG*dT*d[5mC]*dA*dA*kT*kT*k[5mC]) [compound 1075285]”, under setting [10], the “YAP1 (% UTC)” value is reported as 60 % UTC. Take “958351 (kT*k[5mC]*kT*d[5mC]*d[5mC]*dG*dA*dG*dT*d[5mC]*d[5mC]*d[5mC]*d[5mC]*kG*k[5mC]*kG; antisense) [Compound 958351]”: under setting [12], the “YAP1 (% UTC)” value was 67 % UTC. On to “1075468 (antisense k[5mC]*kA*k[5mC]*d[5mC]*dA*dA*dT*dA*d[5mC]*dT*dG*dA*dG*kT*kA*kT) [compound 1075468]”, for which, under setting [3], the “YAP1 (% UTC)” value is on record as 91 % UTC. For the substance “1076141 (kT*kA*k[5mC]*dG*dA*dA*dA*dA*dA*dA*dG*d[5mC]*d[5mC]*kA*kA*k[5mC]; antisense) [compound 1076141]”, under setting [1], the “YAP1 (% UTC)” value is listed as 29 % UTC. As for “1074357 (antisense k[5mC]*kG*kA*dG*dG*dG*dA*d[5mC]*dA*d[5mC]*dT*dG*dT*kA*kG*k[5mC]) [compound 1074357]”, the “YAP1 (% UTC)” value under setting [10] is 12 % UTC.

For the substance “1076111 (kA*kA*kT*dT*dA*dG*dT*dT*dA*dG*dG*dA*dT*kA*kT*k[5mC]; antisense) [compound 1076111]”, the “YAP1 (% UTC)” value under setting [6] is 67 % UTC. Turning to “958492 (kT*kG*kT*d[5mC]*dA*dG*dA*d[5mC]*d[5mC]*dA*dG*dT*dA*kA*kA*kT; antisense) [Compound 958492]”, under setting [7], the “YAP1 (% UTC)” value is listed as 12 % UTC. On to “958585 (k[5mC]*kT*k[5mC]*dT*dA*dT*d[5mC]*dA*dA*dG*dG*dT*d[5mC]*k[5mC]*k[5mC]*k[5mC]; antisense) [Compound 958585]”, for which, under setting [11], the “YAP1 (% UTC)” value is 5 % UTC.

As for “1075700 (kG*k[5mC]*k[5mC]*dA*dA*dA*dT*dA*dA*dG*dA*dG*dG*kT*kA*kG; antisense) [compound 1075700]”, under setting [4], the “YAP1 (% UTC)” value was found to be 22 % UTC. In the case of “1074965 (antisense kG*kT*kG*dT*dT*dT*dA*dG*dG*d[5mC]*dA*dA*dG*k[5mC]*kA*kG) [compound 1074965]”, the “YAP1 (% UTC)” value under setting [10] turned out to be 20 % UTC. For “958701 (antisense kT*kT*kA*dA*dA*d[5mC]*dT*dA*dG*dG*d[5mC]*dA*d[5mC]*kA*kT*kT) [Compound 958701]”, the “YAP1 (% UTC)” value under setting [5] was 98 % UTC. Consider “958480 (antisense kA*kA*k[5mC]*dT*dG*dG*d[5mC]*dT*dT*dA*dT*dG*dG*kA*kA*kA) [Compound 958480]”, for which, under setting [11], the “YAP1 (% UTC)” value stood at 24 % UTC.

On to “958813 (kT*kT*kA*d[5mC]*dA*dG*dA*dG*dA*dG*dA*dT*dT*k[5mC]*kA*kT; antisense) [Compound 958813]”, for which the “YAP1 (% UTC)” value under setting [2] was found to be 8 % UTC. For the substance “1076172 (kT*kA*kT*dT*dA*dG*dT*dA*dA*dA*dG*dA*dG*kT*kA*k[5mC]; antisense) [compound 1076172]”, the “YAP1 (% UTC)” value under setting [3] is given as 98 % UTC. Take “958795 (antisense kT*kA*kT*dT*d[5mC]*d[5mC]*dG*d[5mC]*dA*dT*dT*dG*d[5mC]*k[5mC]*kT*kA) [Compound 958795]”: the “YAP1 (% UTC)” value under setting [11] is 8 % UTC. For “1074252 (antisense kG*kG*kA*d[5mC]*dA*dG*d[5mC]*dA*dT*dG*dG*d[5mC]*d[5mC]*kT*kT*k[5mC]) [compound 1074252]”, the “YAP1 (% UTC)” value under setting [3] was 50 % UTC.

On to “958644 (antisense kA*kT*kG*dA*dT*d[5mC]*dA*dA*dA*d[5mC]*d[5mC]*dT*dT*kT*kT*k[5mC]) [Compound 958644]”, for which the “YAP1 (% UTC)” value under setting [9] is given as 5 % UTC. In the case of “958389 (antisense k[5mC]*kG*kG*dA*dG*dG*d[5mC]*dG*d[5mC]*dG*d[5mC]*dG*d[5mC]*kA*kT*kT) [Compound 958389]”, the “YAP1 (% UTC)” value under setting [12] is 126 % UTC.

As to “1074702 (antisense kG*kG*kT*dG*dT*dA*dA*dG*dA*d[5mC]*dA*dA*dG*kT*k[5mC]*kT) [compound 1074702]”, under setting [8], the “YAP1 (% UTC)” value is reported as 16 % UTC.
